Experimental data: patent publication US9078851B2, “Composition for preventing or treating a spinal cord injury” (UNIVERSITY-INDUSTRY COOPERATION GROUP OF KYUNG HEE, priority 2009, dated 2015)

Assays:
Assay type in all cases: in vivo, rat
[1] = tested on: apoptosis of nerve cells and oligodendrocytes; assay: TUNEL staining of apoptosis at spinal cord injury site; settings: tail vein injection
Method: (§1) For the present experiment, male white mice (Sprague-Dawley 240-250 g, 7 weeks, 10 mice) were under general anesthetics by an intraperitoneal injection of Ketamin (80 mg/kg, Yuhan Corporation) and Rompun (7.4 mg/kg, Bayer Korea Corporation). Laminectomy was performed at spine T9-10 level to expose a spinal cord keeping intact dura. And then, rat was put on Spinal cord dropping device (NYU); spine processes at T8 and T11 sites were fixed by using a clamp, respectively; then, a rod (diameter 2 mm, weight 10 g) was dropped from 25 mm height vertical to dorsal part of spinal cord followed by suturing injury site muscle and skin. The rat of Sham-operated control group was performed only laminectomy at same area without damaging spinal cord injury (marked by ‘sham” in figures; hereinafter, the same as above).
(§2) Substance P (marked by ‘SP’ in figures; hereinafter, the same as above) dissolved in saline of 5 nmol/kg concentration was injected through tail vein at immediately, 24 hours, and 48 hours after a spinal cord injury for experimental groups. At sham control group, same volume of saline (marked by ‘vehicle’ in figures; hereinafter, the same as above) without Substance P was injected at same time points. Operation were performed on an electric heating pad of 37° C., and then rat were transferred to cage after awake from the anesthetic. • (2) Preparation of Tissue […]

[2] = tested on: TNF-α, IL-1β, IL-6, iNOS, IL-10 mRNA at spinal cord injury site; assay: RT-PCR analysis of cytokine mRNA in injured spinal cord; settings: 5 nmol/kg tail vein
Method: as §1
Substance P (marked by ‘SP’ in figures; hereinafter, the same as above) dissolved in saline of 5 nmol/kg concentration was injected through tail vein at immediately, 24 hours, and 48 hours after a spinal cord injury for experimental groups. At sham control group, same volume of saline (marked by ‘vehicle’ in figures; hereinafter, the same as above) without Substance P was injected at same time points. Operation were performed on an electric heating pad of 37° C., and then rat were transferred to cage after awake from the anesthetic. • (2) Preparation of Tissue
Substance P (5 nmol/kg in saline) or saline (the same volume without Substance P) was injected through tail vein at various time points at immediately, 1 d, 2d after operation as (1) of Example 1. At 1 hour, 6 hours, 1 day, 3 days, and 5 days, the experimental group (6 rats/group) and the control (6 rats/group) were sacrificed, respectively. After exposing a spinal cord by laminectomy, spin cord with a length of 1 cm, the injury site between T9-10 as the central, was quickly cut off, and immediately put into liquid nitrogen. Total RNA was extracted by using Trizol reagent (Invitrogen), and the cDNA was synthesized through Reverse transcription process. Then, PCR (Chromagen) was performed using primers of TNF-α IL-1β iNOS. Primer's sequences and PCR conditions were as follows.

[3] = tested on: myelin sheath of nerve cell; assay: Immunofluorescence staining of myelin base protein (MBP) after spinal cord injury
Method: as §1, §2

[4] = tested on: TNF-α and IL-10 in peripheral blood; assay: ELISA of cytokines in peripheral blood in spinal cord injury model; settings: 5 nmol/kg tail vein; serum at 1 hour, 6 hours, 1 day, 3 days, 5 days; vs control
Method: as §1, with “above). […]” for “above).”
At immediately, 1 d, 2 ds, in order to investigate an effect of Substance P in cytokine in a peripheral blood, Substance P (5 nmol/kg in saline) or saline (the same volume without Substance P) was injected through tail vein, respectively using the same method as (1) of Example 1. […] Finally, The levels of TNF-α and IL-10 were measured by using ELISA kit (R&D Systems).

[5] = 1 hour after spinal cord injury, vs control

Substance P
apoptosis of oligodendrocytes ([1]; five days after damaging): significantly decreased
apoptosis of nerve cells ([1]; one day after damaging): decreased
expression of IL-1β mRNA [2, 5]: slightly decreased
expression of IL-6 mRNA [2, 5]: slightly decreased
expression of TNF-α mRNA [2, 5]: slightly decreased
expression of iNOS mRNA [2, 5]: slightly decreased
increase of expression of IL-10 mRNA ([2]; 6 hours after spinal cord injury, vs control): at least 17 times
expression of iNOS ([2]; one day after spinal cord injury): surely decreased
expressions of inflammatory cytokines (TNF-α, IL-1β, IL-6, iNOS mRNAs) ([2]; other times than 1 hour, between two groups): do not have a difference
expression of IL-10 mRNA ([2]; up to 3 day after spinal cord injury, vs control): persist increasing level
inhibition of tissue lose ([3]; at 2 mm rostal and caudal from the center): at least 50%
MBP-positive sheath ([3]; tail vein injection, after spinal cord injury): well preserved
level of IL-10 in peripheral blood [4]: no meaningful differences
level of TNF-α in peripheral blood [4]: no meaningful differences
